Laboratory results as given in US20130243707A1, “TOPICAL COMPOSITIONS” (priority 2006, published 2013).
Blank lines part the entries; values can stand above or below the compound they belong to.

Columns and labels:
[1] = tested on: proliferation of lymphocytes in the draining lymph nodes; test: Local lymph node stimulation assay; assay type: in vivo, CBA/J female mice; conditions: positive control
Description: Compositions of Example 39 are subjected to a local lymph node stimulation assay in CBA/J female mice to determine if present compositions produce a hypersensitivity response as measured by the proliferation of lymphocytes in the draining lymph nodes. Ten groups of 5 mice each are used. Five groups are treated on the dorsal surface of both ears once per day for 3 days the compositions or with a positive control (35% hexylcinnamaldehyde (HCA)). On Day 6, the mice are injected intravenously (IV) with 20 μCi of ^3H-thymidine in sterile saline. Five hours later the mice are euthanized and the draining auricular lymph nodes are removed. […] A three-fold or greater increase in proliferative activity relative to the concurrent vehicle-treated control is considered a positive response. […] Since both of these stimulation indices are greater than 3, the positive controls indeed produced a positive response.

[2] = Solubility of Drugs in single solvent alcohols; assay type: physicochemical
Description: Briefly, the indicated NSAID was weighed and added to a beaker. To each beaker, incremental amounts of the indicated solvent was weighed and added. The beakers were sealed with aluminum foil and placed at room temperature or in a 35 C water bath for 20-30 minutes. They beakers were shaken frequently to mix the contents. After 20-30 minutes the solvent alcohols were examined. If a single phasic solution was not yet achieved, an additional aliquot of the solvent was added and the cycle was repeated until complete solvation had occurred.

[3] = Prodrug (ester) formation upon storage, HPLC; assay type: physicochemical; conditions: for rate of prodrug generation: 2% propylene glycol, linear for at least the first 26 days
Description: Next, the peak was characterized in terms of retention position, UV spectrum and mass spectroscopy response. In addition, isolates of the peak were collected from the chromatograph system employed for liquid chromatography-mass spectroscopy. […] The solution was centrifuged and the supernatant collected for analysis. Chromatography was conducted as follows: • Pumps: Hewlett Packard Model 1100 Binary Systems • Solvent A: Water • Solvent B: Acetonitrile • Gradient: […] Sequential detection was performed by UV absorbance using an HP diode array detector followed by ESI-MS […] using a Sciex O-Star/Pulsar quadrupole-TOF mass spectrometer operating in either the positive and negative ion modes. […] At acidic pH (e.g. […]), prodrug formation was relatively independent of Drug concentration. However, at pH 5, prodrug formation seemed to be first order (i.e. dependant upon the Drug concentration).

[4] = Super-solvent water effect (maximum water before NSAID precipitates); assay type: physicochemical
Description: Methods. […] These amounts are chosen based upon the solubility of one gram of NSAID and the amount of the single solvent alcohol for saturation. Next, water was added in step-wise manner to determine the maximum amount that can be added before any visible amount of the NSAID precipitated (i.e., the volume of water that can be added and yet remain single phasic).

Compound: CCCCCC/C(C=O)=C\c1ccccc1 [HCA, hexylcinnamaldehyde]
stimulation index ([1]; 35% HCA in ISW-AP-01 placebo): 4.6
stimulation index ([1]; 35% HCA in ethanol): 4.4

Maximum Drug Concentration in single alcohol: EtOH ([2]; Solubility at 35 C): 50.00
Maximum Drug Concentration in single alcohol: IPA ([2]; Solubility at 35 C): 47.62
Maximum Drug Concentration in single alcohol: PEG ([2]; Solubility at 35 C): 25.00
Maximum Drug Concentration in single alcohol: PG ([2]; Solubility at 35 C): 20.00
Maximum Drug Concentration in single alcohol: EtOH ([2]; Solubility at Room Temperature): 37.04
Maximum Drug Concentration in single alcohol: IPA ([2]; Solubility at Room Temperature): 35.71
Maximum Drug Concentration in single alcohol: PEG ([2]; Solubility at Room Temperature): 22.22
Maximum Drug Concentration in single alcohol: PG ([2]; Solubility at Room Temperature): 15.38
rate of prodrug generation ([3]; pH 3.7, composition of 15% ibuprofen, about 60% ethanol, 3% glycerin): approximately 0.05 % per day
rate of prodrug generation ([3]; pH 5, composition of 15% ibuprofen, about 60% ethanol, 3% glycerin): about 0.025 % per day
Super-solvent Effect on water ([4]; Ibuprofen 2 gm, EtOH 1 gm, IPA 1.1 gm): 11.4%
Super-solvent Effect on water ([4]; Ibuprofen 2 gm, PEG 3 gm, EtOH 1 gm): 45.9%
Super-solvent Effect on water ([4]; Ibuprofen 2 gm, PEG 3 gm, IPA 1.1 gm): 55%
Super-solvent Effect on water ([4]; Ibuprofen 2 gm, PG 4 gm, EtOH 1 gm): 65.8%
Super-solvent Effect on water ([4]; Ibuprofen 2 gm, PG 4 gm, IPA 1.1 gm): 65.3%
Super-solvent Effect on water ([4]; Ibuprofen 2 gm, PG 4 gm, PEG 3 gm): 56%
Super-solvent Effect on water ([4]; Ibuprofen 3 gm, PEG 3 gm, EtOH 1 gm, IPA 1.1 gm): 40.4%
Super-solvent Effect on water ([4]; Ibuprofen 3 gm, PG 4 gm, EtOH 1 gm, IPA 1.1 gm): 63.2%
Super-solvent Effect on water ([4]; Ibuprofen 3 gm, PG 4 gm, PEG 3 gm, EtOH 1 gm): 57.5%
Super-solvent Effect on water ([4]; Ibuprofen 3 gm, PG 4 gm, PEG 3 gm, IPA 1.1 gm): 57.2%
Compound: CC(C)Cc1ccc(C(C)C(=O)O)cc1 (stereo not drawn) [Ibuprofen]
prodrug generation upon storage (HPLC) ([3]; composition of 15% ibuprofen, about 60% ethanol, 3% glycerin, 2% propylene glycol stored for 3 months at 25 C): A new peak (i.e., the prodrug) distinct from the ibuprofen peak was detected
effect of Drug concentration and pH on prodrug generation ([3]; compositions of ibuprofen with ethanol as solvent (FIG. 7)): higher pH (e.g. 5.0) substantially decreases the rate of prodrug formation
